Experimental findings from ChEMBL document CHEMBL3860060, “Discovery and Optimization of 1-Phenoxy-2-aminoindanes as Potent, Selective, and Orally Bioavailable Inhibitors of the Na+/H+ Exchanger Type 3 (NHE3)” (J Med Chem, 2016) are described below.

A short description of data set [1]: Distribution coefficient, log D of the compound at pH 7.4. The data set is classed as physicochemical. Conditions: octanol/water.
A short description of data set [2]: Tmax in Duroc Landrace pig at 3 mg/kg, po administered as single dose by ESI-LC-MS/MS method. Type of data set: ADME, organism-based, Sus scrofa. Conditions: in vivo.
Data set [3] can be described thus: Ratio of AUC in Sprague-Dawley rat at 100 mg/kg, po administered as single dose by ESI-LC-MS/MS method to AUC in Sprague-Dawley rat at 10 mg/kg, po administered as single dose by ESI-LC-MS/MS method. The data set is classed as ADME, organism-based. Conditions: in vivo.
The nature of data set [4]: Solubility of the compound in aqueous buffer. Type of data set: physicochemical.
Data set [5] can be described thus: Oral bioavailability in Duroc Landrace pig at 3 mg/kg administered as single dose by ESI-LC-MS/MS method. Conditions: in vivo. The data set is classed as ADME, organism-based, Sus scrofa.
Data set [6] in a line: Half life in Duroc Landrace pig at 3 mg/kg, po administered as single dose by ESI-LC-MS/MS method. The data set is classed as ADME, organism-based, Sus scrofa. Conditions: in vivo.
Data set [7] in a line: Ratio of AUC in Sprague-Dawley rat at 300 mg/kg, po administered as single dose by ESI-LC-MS/MS method to AUC in Sprague-Dawley rat at 100 mg/kg, po administered as single dose by ESI-LC-MS/MS method. Type of data set: ADME, organism-based. Conditions: in vivo.
A short description of data set [8]: Toxicity in anesthetized mongrel dog assessed as induction of major hemodynamic changes at 10 mg/kg, iv. Type of data set: organism-based, Canis lupus familiaris. Conditions: in vivo.
The nature of data set [9]: Toxicity in anesthetized mongrel dog assessed as induction of major electrophysiological changes at 10 mg/kg, iv. Conditions: in vivo. Type of data set: organism-based, Canis lupus familiaris.
A short description of data set [10]: Half life in Sprague-Dawley rat at 10 mg/kg, po administered as single dose by ESI-LC-MS/MS method. Conditions: in vivo. The data set is classed as ADME, organism-based.
The nature of data set [11]: Stability of the compound. Type of data set: physicochemical.
The nature of data set [12]: Lipophilicity, log P of the compound. The data set is classed as physicochemical. Conditions: octanol/water.
Data set [13] can be described thus: Oral bioavailability in Sprague-Dawley rat at 10 mg/kg administered as single dose by ESI-LC-MS/MS method. The data set is classed as ADME, organism-based. Conditions: in vivo.
Data set [14] can be described thus: Cmax in Sprague-Dawley rat at 10 mg/kg, po administered as single dose by ESI-LC-MS/MS method. Type of data set: ADME, organism-based. Conditions: in vivo. Also noted: dose 10 mg/kg, route oral.
Data set [15] has as its system Sus scrofa. In words: Inhibition of upper airway collapsibility in urethane-chloralose anesthetized pig assessed as time duration for onset of action at 3 mg/kg, id after 4 hrs. Type of data set: functional.
Data set [16] in a line: Oral bioavailability in urethane-chloralose anesthetized pig at 3 mg/kg, id. Type of data set: ADME, organism-based, Sus scrofa. Conditions: in vivo.
Data set [17] in a line: Tmax in Sprague-Dawley rat at 10 mg/kg, po administered as single dose by ESI-LC-MS/MS method. Type of data set: ADME, organism-based. Conditions: in vivo.
The subject of data set [18] is Sus scrofa. Briefly: Inhibition of upper airway collapsibility in urethane-chloralose anesthetized pig assessed as time duration for onset of action at 1 mg/kg, id after 4 hrs. Type of data set: functional.
Data set [19] is described as follows: Ratio of Cmax in Sprague-Dawley rat at 100 mg/kg, po administered as single dose by ESI-LC-MS/MS method to Cmax in Sprague-Dawley rat at 10 mg/kg, po administered as single dose by ESI-LC-MS/MS method. Type of data set: ADME, organism-based. Conditions: in vivo.
Data set [20] can be described thus: Plasma concentration in Sprague-Dawley rat at 10 mg/kg, po after 24 hrs administered as single dose by ESI-LC-MS/MS method. Type of data set: ADME, organism-based.

For the molecule `Cc1nnc(C)n1-c1ccc(O[C@H]2c3cc(Cl)cc(Cl)c3C[C@@H]2N2CC[C@@H](O)C2)c(F)c1.O=P(O)(O)O`, in data set [1], the pH-dependent lipophilicity (logD) (in general, lipophilicity at a set pH, counting ionised and neutral species) is 2.06. The Tmax (commonly the time at which the peak concentration occurs) was 0.5 h in data set [2] and 1 h in data set [17]. Further, the figures for the Ratio in data set [3], in [7] and in [19] were 2.3, 1.1 and 2.3, respectively. Also, the solubility result in data set [4] was “Soluble”. Moreover, the bioavailability (as a rule, dose-corrected exposure relative to a reference, in per cent) in data set [5] is 18 to 98%; in data set [13], 42%; in data set [16], 61%. In addition, the half-life (commonly the time needed for the level to fall by half in the phase considered) in [6] is 18 h; in data set [10] it was 2.7 h. Further, the Activity entry in data set [8] and in [9] was “Non-Toxic” each time. For the same molecule, the Stability entry in [11] is given as “Stable”. Also, in data set [12], the lipophilicity (logP) (as a rule, the decadic logarithm of the partition coefficient of the neutral form, usually between octanol and water) was 2.05. Besides, the Cmax (in general, the highest concentration seen after dosing) in data set [14] came to 570 ng/mL. Further, the Time in the data set on Sus scrofa [15] turned out to be 1.5 h; in the data set on Sus scrofa [18], 1 h. Besides, the concentration at 24 h in [20] was under 1 ng/mL.
